Test results published in patent US20250332182A1, “Galactooligosaccharides for improving immune response” (N.V. Nutricia, priority 2021, published 2025).

Experiments:
CXCR3+Th1 cells = conditions: spleen; DON in the diet
[1] = system: IL-4, IL-6, IL-13, TNF-α and MIP-2; conditions: re-stimulated splenocytes of vaccinated mice; dietary DON
[2] = system: vaccine-specific immunoglobulin; conditions: vaccinated mice; DON in the diet
CD25+ FoxP3+ Treg cells = conditions: spleen of vaccinated mice; DON in the diet
T1ST2+Th2 cells = conditions: spleen; DON in the diet

SMILES: CC1=C[C@H]2O[C@@H]3[C@H](O)C[C@](C)([C@@]2(CO)[C@H](O)C1=O)[C@]31CO1 [DON, deoxynivalenol]
- effect on CXCR3+Th1 cells (CXCR3+Th1 cells): No significant effect
- concentrations of IL-4, IL-6, IL-13, TNF-α and MIP-2 in cell supernatants [1]: No significant effect
- vaccine-specific immunoglobulin production [2]: reduced
- percentage of CD25+ FoxP3+ Treg cells (CD25+ FoxP3+ Treg cells): not significantly affected
- effect on T1ST2+Th2 cells (T1ST2+Th2 cells): No significant effect
